{
  "source": "patent US11389395B2",
  "about": "“Encapsulation of microbubbles within the aqueous core of microcapsules” (DREXEL UNIVERSITY, priority 2009, dated 2022)",
  "key": {"[1]": {"test": "Survival of microbubbles made at different processing temperatures", "format": "physicochemical", "conditions": "formulations included 5 mol % PEG6000MS; for survival of microbubbles, 7° C.: processing temperature 7° C.; for survival of microbubbles, 37° C.: processing temperature 37° C.; for survival of microbubbles, 60° C.: processing temperature 60° C.", "excerpt": "Table 1 lists three phospholipid species, along with their gel transition temperatures, and the results of experiments attempting to make stable microbubbles with these species at different temperatures. All microbubble formulations included 5 mol % PEG6000MS.\nIn all cases in which the processing temperature was below the gel transition temperature, irrespective of the phospholipid identity, microbubble synthesis was feasible. Conversely, microbubble synthesis at temperatures greater than the gel transition temperature was not feasible, regardless of which phospholipid was used."}, "[2]": {"test": "Microbubble growth on heating above the phospholipid chain melting temperature", "format": "physicochemical", "conditions": "microbubbles made at 7° C., heated to 37° C.", "excerpt": "Use of a gel-phase lipid is required to prevent gas from escaping the microbubble. […] Indeed, these microbubbles expanded so as to fill the capillary in which they were contained and therefore became nonspherical, taking on the geometry of the capillary itself. […] Such growth may have resulted from simple expansion of individual microbubbles or by inward diffusion of gas."}},
  "data": [
    {"smiles": "CCCCCCCCCCCCCC(=O)OC[C@H](COP(=O)([O-])OCC[N+](C)(C)C)OC(=O)CCCCCCCCCCCCC", "note": "[DMPC, dimyristoylphosphatidylcholine]", "values": [
      {"measurement": "survival of microbubbles, 7° C.", "setting": "[1]", "result": "Yes"},
      {"measurement": "survival of microbubbles, 37° C.", "setting": "[1]", "result": "No"},
      {"measurement": "survival of microbubbles, 60° C.", "setting": "[1]", "result": "No"},
      {"measurement": "microbubble growth upon heating", "setting": "[2]", "result": "grew spontaneously"}
    ]},
    {"smiles": "CCCCCCCCCCCCCCCCCC(=O)OC[C@H](COP(=O)([O-])OCC[N+](C)(C)C)OC(=O)CCCCCCCCCCCCCCCCC", "note": "[DSPC, 1,2-distearoyl-sn-glycero-3-phosphocholine]", "values": [
      {"measurement": "survival of microbubbles, 7° C.", "setting": "[1]", "result": "Yes"},
      {"measurement": "survival of microbubbles, 37° C.", "setting": "[1]", "result": "Yes"},
      {"measurement": "survival of microbubbles, 60° C.", "setting": "[1]", "result": "No"},
      {"measurement": "microbubble growth upon heating", "setting": "[2]", "result": "No such growth was observed"}
    ]}
  ]
}
